Biological target: T1, HCV NS5B RdRp genotype 1b (Hepatitis C virus genotype 1b, UniProt Q9WMX2)
T1 construct: The protein was expressed with an 18 amino acid C-terminal truncation to enhance the solubility; made in house; host or cells: E. coli BL21(DE3)
Assay: HCV NS5B RdRp enzyme assay
Assay type: biochemical
Conditions: IC50, HCV RdRp genotype 1b enzyme, C-terminal 18 aa truncated; average of single point IC50 values
Description: HCV NS5B RdRp cloning, expression and purification. The cDNA encoding the NS5B protein of HCV, genotype 1b, was cloned into the pET21a expression vector. The protein was expressed with an 18 amino acid C-terminal truncation to enhance the solubility. The E. coli competent cell line BL21(DE3) was used for expression of the protein. Cultures were grown at 37° C. for ˜4 hours until the cultures reached an optical density of 2.0 at 600 nm. The cultures were cooled to 20° C. and induced with 1 mM IPTG. Fresh ampicillin was added to a final concentration of 50 ug/ml and the cells were grown overnight at 20° C.
Cell pellets (3L) were lysed for purification to yield 15-24 mgs of purified NS5B. The lysis buffer consisted of 20 mM Tris-HCl, pH 7.4, 500 mM NaCl, 0.5% triton X-100, 1 mM DTT, 1 mM EDTA, 20% glycerol, 0.5 mg/ml lysozyme, 10 mM MgCl2, 15 ug/ml deoxyribonuclease I, and Complete TM protease inhibitor tablets (Roche). After addition of the lysis buffer, frozen cell pellets were resuspended using a tissue homogenizer. To reduce the viscosity of the sample, aliquots of the lysate were sonicated on ice using a microtip attached to a Branson sonicator. The sonicated lysate was centrifuged at 100,000×g for 1 hr at 4° C. and filtered through a 0.2 μm filter unit (Corning).
The protein was purified using three sequential chromatography steps: Heparin sepharose CL-6B, polyU sepharose 4B, and Hitrap SP sepharose (Pharmacia). The chromatography buffers were identical to the lysis buffer but contained no lysozyme, deoxyribonuclease I, MgCl2 or protease inhibitor and the NaCl concentration of the buffer was adjusted according to the requirements for charging the protein onto the column. Each column was eluted with a NaCl gradient which varied in length from 5-50 column volumes depending on the column type. After the final chromatography step, the resulting purity of the enzyme is >90% based on SDS-PAGE analysis. The enzyme was aliquoted and stored at −80° C.
HCV NS5B RdRp enzyme assay. HCV RdRp genotype 1b assays were run in assay buffer composed of 20 mM Tris-HCl, pH 7.5, 2.5 mM KCl, 5 mM MgCl2, 1 mM DTT, 1.6 U RNAse inhibitor (Promega N2515), in 96 well plates (Falcon 3918). All compounds were serially diluted in DMSO and diluted further in assay buffer such that the final concentration of DMSO in the assay was 2%. Compounds were serially diluted (3-fold each time) for a 7 point inhibition analysis. HCV RdRp genotype 1b enzyme was used at a final concentration of 28 nM. A polyA template was used at 28 nM, and the oligo-dT12-18 primer was used at 840 nM final concentration. Preannealed primer and template were obtained commercially (Amersham 27-787802). ^3H-UTP was used at 0.125 μCi (1 μM total UTP). Reaction was initiated by the addition of enzyme. Reactions were incubated at 30° C. for 45 min, and stopped by adding 30 ul of 20% ice cold TCA. Plates were chilled for 30 minutes and harvested onto Unifilter-96, GF/B plates (Packard, 6005177) using a Packard FilterMate Cell Harvester. The harvest plates were prewashed 3 times, 200 ul/well, with 100 mM NaPPi. Harvested filters were washed 30 times, 200 ul/well, with distilled water followed by ethanol. Filter plates were dried, and 30 ul/well microscint-20 was added. Plates were read on a Packard Top Count NXT.
The IC50 values for compounds were determined using […] different [I], combined with 7 nM enzyme, 800 ng of the template-primer polyC/oligoG12 (1:5 molar ratio), and 0.7 uM of ^3H GTP containing 1 uCi. The observed fractional activity (fa=vi/vo) was used in the equation IC50=[I]/(1/fa-1) to determine a single point IC50 value. Typically, the single point IC50 values derived from [I] that produced fractional activities in the range of 0.1 to 0.8 relative to the uninhibited control were averaged to calculate the IC50 value for each compound.

T1 sequence (Q9WMX2 2420-2992): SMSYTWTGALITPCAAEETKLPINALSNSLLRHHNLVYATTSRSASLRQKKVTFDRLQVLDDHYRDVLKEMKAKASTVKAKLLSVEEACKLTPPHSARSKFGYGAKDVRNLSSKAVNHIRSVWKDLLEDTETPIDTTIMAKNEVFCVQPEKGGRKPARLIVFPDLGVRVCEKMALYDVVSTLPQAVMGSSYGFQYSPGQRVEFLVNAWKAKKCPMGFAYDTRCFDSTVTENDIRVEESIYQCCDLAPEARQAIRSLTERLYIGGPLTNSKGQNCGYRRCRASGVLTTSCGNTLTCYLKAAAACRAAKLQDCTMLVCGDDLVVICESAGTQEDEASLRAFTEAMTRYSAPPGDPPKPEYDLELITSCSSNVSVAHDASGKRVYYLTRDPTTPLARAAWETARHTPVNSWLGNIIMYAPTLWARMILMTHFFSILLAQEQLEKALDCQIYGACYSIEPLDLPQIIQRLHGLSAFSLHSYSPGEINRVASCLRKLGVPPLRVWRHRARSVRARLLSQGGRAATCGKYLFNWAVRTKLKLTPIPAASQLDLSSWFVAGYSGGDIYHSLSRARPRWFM

Row | Structure (SMILES) | IC50 [nM]
1 | NC(=O)CCNC(=O)c1ccc(-c2cccc(O)c2)c(COc2ccc(-c3nc4cc(-c5nnn[nH]5)ccc4n3C3CCCCC3)cc2)c1 [Example 55] | 200
2 | CC(NC(=O)c1ccc(-c2ccc(F)c(Cl)c2)c(COc2ccc(-c3nc4cc(-c5nnn[nH]5)ccc4n3C3CCCCC3)cc2)c1)C(=O)O (stereo not drawn) [Example 56] | 190
3 | O=C(NC(Cc1ccc(O)cc1)C(=O)O)c1ccc(-c2ccc(F)c(Cl)c2)c(COc2ccc(-c3nc4cc(-c5nnn[nH]5)ccc4n3C3CCCCC3)cc2)c1 (stereo not drawn) [Example 57] | 180
4 | NC(=O)CCNC(=O)c1ccc(-c2ccc(F)c(Cl)c2)c(COc2ccc(-c3nc4cc(-c5nnn[nH]5)ccc4n3C3CCCCC3)cc2)c1 [Example 59] | 920
5 | COc1ccc(-c2ccc(C(=O)NC(Cc3ccc(O)cc3)C(=O)O)cc2COc2ccc(-c3nc4cc(-c5nnn[nH]5)ccc4n3C3CCCCC3)cc2)cc1OC (stereo not drawn) [Example 61] | 90
6 | COc1ccc(-c2ccc(C(=O)NCCC(N)=O)cc2COc2ccc(-c3nc4cc(-c5nnn[nH]5)ccc4n3C3CCCCC3)cc2)cc1OC [Example 63] | 150
7 | CN1CCN(C(=O)c2ccc(-c3cccc(O)c3)c(COc3ccc(-c4nc5cc(-c6nnn[nH]6)ccc5n4C4CCCCC4)cc3)c2)CC1 [Example 64] | 1200
8 | O=C(c1ccc(-c2cccc(O)c2)c(COc2ccc(-c3nc4cc(-c5nnn[nH]5)ccc4n3C3CCCCC3)cc2)c1)N1CCOCC1 [Example 65] | 1700
9 | O=C(c1ccc(-c2cccc(O)c2)c(COc2ccc(-c3nc4cc(-c5nnn[nH]5)ccc4n3C3CCCCC3)cc2)c1)N1CCCC1 [Example 66] | 1400
10 | O=C(NCCCO)c1ccc(-c2cccc(O)c2)c(COc2ccc(-c3nc4cc(-c5nnn[nH]5)ccc4n3C3CCCCC3)cc2)c1 [Example 67] | 790
11 | CNC(=O)c1ccc(-c2cccc(O)c2)c(COc2ccc(-c3nc4cc(-c5nnn[nH]5)ccc4n3C3CCCCC3)cc2)c1 [Example 68] | 540
12 | O=C(c1ccc(-c2cccc(O)c2)c(COc2ccc(-c3nc4cc(-c5nnn[nH]5)ccc4n3C3CCCCC3)cc2)c1)N1CCC(O)CC1 [Example 69] | 660
13 | O=C(c1ccc(-c2cccc(O)c2)c(COc2ccc(-c3nc4cc(-c5nnn[nH]5)ccc4n3C3CCCCC3)cc2)c1)N(CCO)CCO [Example 70] | 500
14 | CC(NC(=O)c1ccc(-c2cccc(O)c2)c(COc2ccc(-c3nc4cc(-c5nnn[nH]5)ccc4n3C3CCCCC3)cc2)c1)C(=O)OC(C)(C)C (stereo not drawn) [Example 71] | 520
15 | CC(C)(C)OC(=O)CNC(=O)c1ccc(-c2cccc(O)c2)c(COc2ccc(-c3nc4cc(-c5nnn[nH]5)ccc4n3C3CCCCC3)cc2)c1 [Example 72] | 930
16 | O=C(O)CNC(=O)c1ccc(-c2cccc(O)c2)c(COc2ccc(-c3nc4cc(-c5nnn[nH]5)ccc4n3C3CCCCC3)cc2)c1 [Example 74] | 150
17 | O=C(c1ccc(-c2ccc(F)c(Cl)c2)c(COc2ccc(-c3nc4cc(-c5nnn[nH]5)ccc4n3C3CCCCC3)cc2)c1)N1CCOCC1 [Example 76] | 1400
18 | O=C(c1ccc(-c2ccc(F)c(Cl)c2)c(COc2ccc(-c3nc4cc(-c5nnn[nH]5)ccc4n3C3CCCCC3)cc2)c1)N1CCCC1 [Example 77] | 1200
19 | O=C(NCCCO)c1ccc(-c2ccc(F)c(Cl)c2)c(COc2ccc(-c3nc4cc(-c5nnn[nH]5)ccc4n3C3CCCCC3)cc2)c1 [Example 78] | 690
20 | CNC(=O)c1ccc(-c2ccc(F)c(Cl)c2)c(COc2ccc(-c3nc4cc(-c5nnn[nH]5)ccc4n3C3CCCCC3)cc2)c1 [Example 79] | 550
21 | O=C(c1ccc(-c2ccc(F)c(Cl)c2)c(COc2ccc(-c3nc4cc(-c5nnn[nH]5)ccc4n3C3CCCCC3)cc2)c1)N(CCO)CCO [Example 81] | 1100

Row | Structure (SMILES) | IC50 [nM]
22 | CC(NC(=O)c1ccc(-c2ccc(F)c(Cl)c2)c(COc2ccc(-c3nc4cc(-c5nnn[nH]5)ccc4n3C3CCCCC3)cc2)c1)C(=O)OC(C)(C)C (stereo not drawn) [Example 82] | 1300
23 | CC(C)(C)OC(=O)C(Cc1ccc(O)cc1)NC(=O)c1ccc(-c2ccc(F)c(Cl)c2)c(COc2ccc(-c3nc4cc(-c5nnn[nH]5)ccc4n3C3CCCCC3)cc2)c1 (stereo not drawn) [Example 83] | 560
24 | CC(C)(C)OC(=O)CNC(=O)c1ccc(-c2ccc(F)c(Cl)c2)c(COc2ccc(-c3nc4cc(-c5nnn[nH]5)ccc4n3C3CCCCC3)cc2)c1 [Example 84] | 1200
25 | CC(C)(C)OC(=O)C(Cc1cc2ccccc2[nH]1)NC(=O)c1ccc(-c2ccc(F)c(Cl)c2)c(COc2ccc(-c3nc4cc(-c5nnn[nH]5)ccc4n3C3CCCCC3)cc2)c1 (stereo not drawn) [Example 85] | 2300
26 | O=C(O)CNC(=O)c1ccc(-c2ccc(F)c(Cl)c2)c(COc2ccc(-c3nc4cc(-c5nnn[nH]5)ccc4n3C3CCCCC3)cc2)c1 [Example 86] | 320
27 | COc1ccc(-c2ccc(C(=O)N3CCOCC3)cc2COc2ccc(-c3nc4cc(-c5nnn[nH]5)ccc4n3C3CCCCC3)cc2)cc1OC [Example 88] | 470
28 | COc1ccc(-c2ccc(C(=O)N3CCCC3)cc2COc2ccc(-c3nc4cc(-c5nnn[nH]5)ccc4n3C3CCCCC3)cc2)cc1OC [Example 89] | 460
29 | COc1ccc(-c2ccc(C(=O)NCCCO)cc2COc2ccc(-c3nc4cc(-c5nnn[nH]5)ccc4n3C3CCCCC3)cc2)cc1OC [Example 90] | 630
30 | CNC(=O)c1ccc(-c2ccc(OC)c(OC)c2)c(COc2ccc(-c3nc4cc(-c5nnn[nH]5)ccc4n3C3CCCCC3)cc2)c1 [Example 91] | 260
31 | COc1ccc(-c2ccc(C(=O)N(CCO)CCO)cc2COc2ccc(-c3nc4cc(-c5nnn[nH]5)ccc4n3C3CCCCC3)cc2)cc1OC [Example 93] | 690
32 | COc1ccc(-c2ccc(C(=O)NC(C)C(=O)OC(C)(C)C)cc2COc2ccc(-c3nc4cc(-c5nnn[nH]5)ccc4n3C3CCCCC3)cc2)cc1OC (stereo not drawn) [Example 94] | 2100
33 | COc1ccc(-c2ccc(C(=O)NC(Cc3ccc(O)cc3)C(=O)OC(C)(C)C)cc2COc2ccc(-c3nc4cc(-c5nnn[nH]5)ccc4n3C3CCCCC3)cc2)cc1OC (stereo not drawn) [Example 95] | 1400
34 | COc1ccc(-c2ccc(C(=O)NCC(=O)OC(C)(C)C)cc2COc2ccc(-c3nc4cc(-c5nnn[nH]5)ccc4n3C3CCCCC3)cc2)cc1OC [Example 96] | 1600
35 | COc1ccc(-c2ccc(C(=O)NCC(=O)O)cc2COc2ccc(-c3nc4cc(-c5nnn[nH]5)ccc4n3C3CCCCC3)cc2)cc1OC [Example 98] | 210
36 | CNC(=O)c1ccc(-c2ccc(Cl)cc2)c(COc2ccc(-c3nc4cc(-c5nnn[nH]5)ccc4n3C3CCCCC3)cc2)c1 [Example 106] | 660
37 | O=C(O)c1ccc(-c2cccs2)c(COc2ccc(-c3nc4cc(-c5nnn[nH]5)ccc4n3C3CCCCC3)cc2)c1 [Example 114] | 70
38 | O=C(O)c1ccc(-c2ccsc2)c(COc2ccc(-c3nc4cc(-c5nnn[nH]5)ccc4n3C3CCCCC3)cc2)c1 [Example 115] | 40
39 | O=C(O)c1ccc(-c2cc3ccccc3o2)c(COc2ccc(-c3nc4cc(-c5nnn[nH]5)ccc4n3C3CCCCC3)cc2)c1 [Example 116] | 170
40 | O=C(O)c1ccc(-c2ccco2)c(COc2ccc(-c3nc4cc(-c5nnn[nH]5)ccc4n3C3CCCCC3)cc2)c1 [Example 117] | 290
41 | O=C(O)c1ccc(-c2ccc3c(c2)OCO3)c(COc2ccc(-c3nc4cc(-c5nnn[nH]5)ccc4n3C3CCCCC3)cc2)c1 [Example 118] | 70
42 | O=C(O)c1ccc(-c2cc3ccccc3s2)c(COc2ccc(-c3nc4cc(-c5nnn[nH]5)ccc4n3C3CCCCC3)cc2)c1 [Example 119] | 30

Source: US6803374B2, “Compounds useful for treating hepatitis C virus” (priority 2001, dated 2004)
